# In patent US20150051242A1, “RAFAMYCIN ANALOGS AND METHODS FOR MAKING SAME” (HANGZHOU ZYLOX PHARMA CO., LTD, priority 2012, published 2015):
# How the values were obtained:
# mTOR = biological target: T1, mTOR (Homo sapiens, UniProt P42345+P62942); assay: mTOR TR-FRET kinase assay (phosphorylation of GFP-4E-BP1); type: biochemical; conditions: 10 μM ATP, 0.4 μM GFP-4E-BP1, read-out: IC50 mTOR inhibition
# T1 construct: purchased Invitrogen (mTOR); SinoBiological (FKBP12) PV4753 (mTOR); 10268-H08E (FKBP12)
# T1 sequence (P42345 1360-2549 limits assumed): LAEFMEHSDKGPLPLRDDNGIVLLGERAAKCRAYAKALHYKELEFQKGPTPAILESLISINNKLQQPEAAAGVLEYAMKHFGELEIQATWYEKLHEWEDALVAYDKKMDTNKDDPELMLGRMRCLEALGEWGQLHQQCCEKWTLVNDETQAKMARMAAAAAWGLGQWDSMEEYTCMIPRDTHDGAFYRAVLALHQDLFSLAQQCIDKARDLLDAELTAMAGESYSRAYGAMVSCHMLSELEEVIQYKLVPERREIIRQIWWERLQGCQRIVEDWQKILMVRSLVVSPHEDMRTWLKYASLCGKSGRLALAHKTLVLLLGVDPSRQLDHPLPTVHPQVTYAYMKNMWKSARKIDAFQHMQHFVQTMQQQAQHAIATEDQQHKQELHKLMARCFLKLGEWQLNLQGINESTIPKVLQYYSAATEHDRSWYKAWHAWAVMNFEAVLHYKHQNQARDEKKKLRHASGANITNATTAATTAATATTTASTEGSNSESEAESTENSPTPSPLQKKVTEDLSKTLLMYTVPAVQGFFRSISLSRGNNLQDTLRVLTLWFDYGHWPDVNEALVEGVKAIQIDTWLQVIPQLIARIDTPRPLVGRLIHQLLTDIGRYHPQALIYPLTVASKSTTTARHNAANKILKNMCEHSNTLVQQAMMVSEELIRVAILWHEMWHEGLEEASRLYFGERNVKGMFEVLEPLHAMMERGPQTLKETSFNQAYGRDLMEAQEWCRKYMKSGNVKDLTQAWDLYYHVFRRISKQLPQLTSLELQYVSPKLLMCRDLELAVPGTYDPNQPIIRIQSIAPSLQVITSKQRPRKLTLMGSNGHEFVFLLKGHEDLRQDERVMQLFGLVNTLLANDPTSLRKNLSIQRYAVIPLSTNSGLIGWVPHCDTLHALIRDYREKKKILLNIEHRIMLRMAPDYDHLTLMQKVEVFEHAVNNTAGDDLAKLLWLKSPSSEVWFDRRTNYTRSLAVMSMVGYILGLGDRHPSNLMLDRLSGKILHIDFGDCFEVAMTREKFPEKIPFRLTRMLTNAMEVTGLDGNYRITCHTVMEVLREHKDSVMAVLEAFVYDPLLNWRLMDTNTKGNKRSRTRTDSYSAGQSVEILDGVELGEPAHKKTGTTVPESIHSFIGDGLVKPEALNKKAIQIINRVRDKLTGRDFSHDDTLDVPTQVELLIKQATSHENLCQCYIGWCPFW
# T1 sequence (P62942 whole entry): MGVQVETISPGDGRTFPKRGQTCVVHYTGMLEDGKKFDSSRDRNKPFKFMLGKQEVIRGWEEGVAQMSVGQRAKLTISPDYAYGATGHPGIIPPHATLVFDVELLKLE
# From the text: Now we use a Terbium labeled anti-phosphorylated 4E--BP1 antibody to detect phosphorylation of the GFP-labeled substrate by mTOR. This TR-FRET based assay can be used to screen inhibitors of mTOR in vitro.
# Materials: Assay buffer components: 1M HEPES pH7.5, GIBCO, Cat#15630: 1M MgCl2, Sigma, Cat# M1028: 0.5M EDTA, GIBCO, Cat# 15575: DTT, Sigma Cat# 43819: EGTA, Sigma Cat# E3889; Triton X100, Sigma, Cat# T8787: USA CALBIOCHEM Cat# 126575.
# Enzyme, substrate and detection reagents: mTOR: Invitrogen, Cat# PV4753: GFP-4E-BPI: Invitrogen, Cat# PV4759: FKBP12: SinoBiological, Cat# 10268-H08E: ATP: Sigma Cat# A26209: Tb-anti-p4E-BP1: Invitrogen, Cat# PV4755: TR-FRET Dilution buffer Invitrogen, Cat# PV3574.
# Plate: Compounds preparation plate: 384-well, Corning cat# 3657: Assay plate: black low volume 384 well microtiter plate (Greiner Bio-One, Cat# 784076).
# Procedure: Compounds dosage gradient solution preparation:
# Compounds were 3-fold serial diluted in 100% DMSO in a microtiter plate (Corning 3674) at 11 different concentrations in the range of 100 μM to 1.7 nM (100 μM, 33 μM, 11 μM, 3.7 μM, 1.2 μM, 411 nM, 137 nM, 46 nM, 15 nM, 5 nM, 1.7 nM). Then the diluted compounds in 100% DMSO was 10-fold diluted with ddH2O, so the compounds were in 10% DMSO.
# 0.5 μl diluted compounds in 10% DMSO was pipetted into a black low volume 384 well microtiter plate (Greiner Bio-One, Frickenhausen, Germany, cat# 784076): 2 μl of a solution of mTOR in aqueous assay buffer |50 mM HEPES/NaOH pH 7.5. mM MgCl12, 1.0 mM dithiothreitol, 1 mM EGTA, 0.01% (v/v) Triton-X100 (Sigma), 0.01% (w/v| bovine serum albumine (BSA)| (mTOR, 0.3125 ng/μl=>final cone, in the 5 μl assay volume is 0.125 ng/μl) were added to the assay plate and the compound-enzyme mixture was incubated for 15 min at 22° C. to allow pre-binding of the test compounds to the enzyme before the start of the kinase reaction:
# The kinase reaction was started by the addition of 2.5 μl of a solution of ATP (ATP, […]=>final conc., in the 5 μl assay volume is 10 μM) and substrate (0.8 μM=>final conc. in the 5 μl assay volume is 0.4 μM) in assay buffer and the resulting mixture was incubated for 18 min at 22° C.
# The reaction was stopped by the addition of 5 ul of 30 mM EDTA (EDTA, 30 mM=> final cone, in the 10 ∥l assay volume is 15 mM) and 4 nM Tb-chelate labeled anti-4E-BP1 |pT46| phosphospecific antibody |Invitrogen Cat# PV4755| (Tb-labeled antibody, 4 nM=>final conc. in the 10 μl assay volume is 2 nM) in TR-FRET dilution buffer, the resulting mixture was incubated 1 hour at 22° C. to allow the formation of complex of the phosphorylated substrate and the Tb-chelate labeled antibody.
# The amount of phosphorylated substrate was evaluated by measurement of the resonance energy transfer from the Tb-chelate to the GFP. Therefore, the fluorescence emission at 495 nmn and 520 nm after excitation at 340 nm was measured on envision 2104 multilabel reader (Perkin-Elmer). The ratio of the emission at 520 nm and at 495 nm was taken as the measure for the amount of phosphorylated substrate. The data were normalised (enzyme reaction without inhibitor=0% inhibition, all other assay components but no enzyme=100% inhibition) and IC50 values were calculated by a 4 parameter fit (equation (1)) using IDBS XLfit software (ID Business Solutions Ltd., UK)
# Y=Bottom+(TOP−Bottom)/(1+10̂((LogIC50−X)*hillslope)) equation (1)
# In this equation, Y was the normalized % inhibition value. X was the log value of the test compound concentration. IC50 was the concentration of compound where half of maximal inhibition was achieved.
# [1] = system: HCT-116 human colon cancer; conditions: 9 mg/kg/day p.o., after 22 days treatment, compared to vehicle control
# Procedure: Animals: Balb/c nude mice, female, 6-8 weeks, weighing approximately 18-20 g. A total of 70 will be needed for the study, which will be purchased from Vital River Laboratory Animal Technology Co. Ltd.
# Tumor Inoculation: Each mouse will be inoculated subculaneously at the right flank with HCT-116 tumor cells (3×106) in 0.1 ml of PBS for tumor development. The treatments will be started when the tumor size reaches approximately ˜150 mm3.
# Assignment to Groups: Before commencement of treatment, all animals will be weighed and the tumor volumes will be measured. […]
# Endpoints: The major endpoint is to see if the tumor growth can be delayed or mice can be cured. Tumor sizes will be measured twice weekly in two dimensions using a caliper, and the volume will be expressed in mm3 using the formula: V=0.5 a×b2 where a and b are the long and short diameters of the tumor, respectively. […] T-C is calculated with T as the median time (in days) required for the treatment group tumors to reach a predetermined size (e.g., 500 mm3), and C is the median time (in days) for the control group tumors to reach the same size. […]
# Statistical Analysis: for comparison between two groups, an independent sample t-test will be used. […] The potential synergistic effect between treatments will be analyzed by LSD or Dunnett's T3. All data will be analyzed using SPSS 17.0 software, p<0.05 is considered to be statistically significant.
compound,measurement,setting,value
CO[C@H]1C[C@@H]2CC[C@@H](C)[C@@](O)(O2)C(=O)C(=O)N2CCCC[C@H]2C(=O)O[C@H]([C@H](C)C[C@@H]2CC[C@@H](OCc3cn(C45CC6CC(CC(C6)C4)C5)nn3)[C@H](OC)C2)CC(=O)[C@H](C)/C=C(\C)[C@@H](O)[C@@H](OC)C(=O)[C@H](C)C[C@H](C)/C=C/C=C/C=C/1C [Compound A3],IC50,mTOR,> 10000 nM
CO[C@H]1C[C@@H]2CC[C@@H](C)[C@@](O)(O2)C(=O)C(=O)N2CCCC[C@H]2C(=O)O[C@H]([C@H](C)C[C@@H]2CC[C@@H](OCc3cn(-c4ccc(C(=O)O)cc4)nn3)[C@H](OC)C2)CC(=O)[C@H](C)/C=C(\C)[C@@H](O)[C@@H](OC)C(=O)[C@H](C)C[C@H](C)/C=C/C=C/C=C/1C [Compound A4],IC50,mTOR,6600 nM
CO[C@H]1C[C@@H]2CC[C@@H](C)[C@@](O)(O2)C(=O)C(=O)N2CCCC[C@H]2C(=O)O[C@H]([C@H](C)C[C@@H]2CC[C@@H](OCc3c[nH]nn3)[C@H](OC)C2)CC(=O)[C@H](C)/C=C(\C)[C@@H](O)[C@@H](OC)C(=O)[C@H](C)C[C@H](C)/C=C/C=C/C=C/1C [Compound A6],IC50,mTOR,9140 nM
COC1CC2CCC(C)C(O)(O2)C(=O)C(=O)N2CCCCC2C(=O)OC(C(C)CC2CCC(OCc3cn(CCO)nn3)C(OC)C2)CC(=O)C(C)C=C(C)C(O)C(OC)C(=O)C(C)CC(C)C=CC=CC=C1C (centres unmarked) [Compound A9],IC50,mTOR,> 10000 nM
CO[C@H]1C[C@@H]2CC[C@@H](C)[C@@](O)(O2)C(=O)C(=O)N2CCCC[C@H]2C(=O)O[C@H]([C@H](C)C[C@@H]2CC[C@@H](OCc3cn(CC(=O)O)nn3)[C@H](OC)C2)CC(=O)[C@H](C)/C=C(\C)[C@@H](O)[C@@H](OC)C(=O)[C@H](C)C[C@H](C)/C=C/C=C/C=C/1C [Compound A12],IC50,mTOR,> 10000 nM
CO[C@H]1C[C@@H]2CC[C@@H](C)[C@@](O)(O2)C(=O)C(=O)N2CCCC[C@H]2C(=O)O[C@H]([C@H](C)C[C@@H]2CC[C@@H](OCc3cn(-c4ccc(N5CCN(C)CC5)cc4)nn3)[C@H](OC)C2)CC(=O)[C@H](C)/C=C(\C)[C@@H](O)[C@@H](OC)C(=O)[C@H](C)C[C@H](C)/C=C/C=C/C=C/1C [Compound A13],IC50,mTOR,> 10000 nM
COC1CC2CCC(C)C(O)(O2)C(=O)C(=O)N2CCCCC2C(=O)OC(C(C)CC2CCC(OCc3cn(Cc4ccc(F)cc4)nn3)C(OC)C2)CC(=O)C(C)C=C(C)C(O)C(OC)C(=O)C(C)CC(C)C=CC=CC=C1C (centres unmarked) [Compound A14],IC50,mTOR,> 10000 nM
"CO[C@H]1C[C@@H]2CC[C@@H](C)[C@@](O)(O2)C(=O)C(=O)N2CCCC[C@H]2C(=O)O[C@H]([C@H](C)C[C@@H]2CC[C@@H](OCCO)[C@H](OC)C2)CC(=O)[C@H](C)/C=C(\C)[C@@H](O)[C@@H](OC)C(=O)[C@H](C)C[C@H](C)/C=C/C=C/C=C/1C [Compound A15, reference compound]",tumor growth inhibition,[1],63%
same,IC50,mTOR,6.43 nM
CO[C@H]1C[C@@H]2CC[C@@H](C)[C@@](O)(O2)C(=O)C(=O)N2CCCC[C@H]2C(=O)O[C@H]([C@H](C)C[C@@H]2CC[C@H](n3cc(CO)nn3)[C@H](OC)C2)CC(=O)[C@H](C)/C=C(\C)[C@@H](O)[C@@H](OC)C(=O)[C@H](C)C[C@H](C)/C=C/C=C/C=C/1C [Compound B2],IC50,mTOR,18.4 nM
CO[C@H]1C[C@@H]2CC[C@@H](C)[C@@](O)(O2)C(=O)C(=O)N2CCCC[C@H]2C(=O)O[C@H]([C@H](C)C[C@@H]2CC[C@H](n3cc(-c4cccnc4)nn3)[C@H](OC)C2)CC(=O)[C@H](C)/C=C(\C)[C@@H](O)[C@@H](OC)C(=O)[C@H](C)C[C@H](C)/C=C/C=C/C=C/1C [Compound B9],IC50,mTOR,27.2 nM
CO[C@H]1C[C@@H]2CC[C@@H](C)[C@@](O)(O2)C(=O)C(=O)N2CCCC[C@H]2C(=O)O[C@H]([C@H](C)C[C@@H]2CC[C@H](n3cc(-c4ccc(C(=O)O)cc4)nn3)[C@H](OC)C2)CC(=O)[C@H](C)/C=C(\C)[C@@H](O)[C@@H](OC)C(=O)[C@H](C)C[C@H](C)/C=C/C=C/C=C/1C [Compound B11],IC50,mTOR,446 nM
CO[C@H]1C[C@@H]2CC[C@@H](C)[C@@](O)(O2)C(=O)C(=O)N2CCCC[C@H]2C(=O)O[C@H]([C@H](C)C[C@@H]2CC[C@H](n3cc(COc4ccc(S(N)(=O)=O)cc4)nn3)[C@H](OC)C2)CC(=O)[C@H](C)/C=C(\C)[C@@H](O)[C@@H](OC)C(=O)[C@H](C)C[C@H](C)/C=C/C=C/C=C/1C [Compound B12],IC50,mTOR,35.2 nM
CO[C@H]1C[C@@H]2CC[C@@H](C)[C@@](O)(O2)C(=O)C(=O)N2CCCC[C@H]2C(=O)O[C@H]([C@H](C)C[C@@H]2CC[C@H](n3cc(-c4ccc(S(N)(=O)=O)cc4)nn3)[C@H](OC)C2)CC(=O)[C@H](C)/C=C(\C)[C@@H](O)[C@@H](OC)C(=O)[C@H](C)C[C@H](C)/C=C/C=C/C=C/1C [Compound B13],IC50,mTOR,29 nM
